From PubChem BioAssay (NCI)
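A five-concentration, 48-hour dose response in 96-well plates underlies each endpoint, interpolated linearly between surrounding concentrations. TGI marks complete inhibition of growth.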

Legend:
Test in all cases: NCI anticancer screen, dose series, 48 h
[1] = test system: SR leukemia
[2] = test system: OVCAR-8 ovarian
[3] = test system: M14 melanoma
[4] = test system: HOP-62 NSCLC
[5] = test system: DMS 273 small cell lung
[6] = test system: M19-MEL melanoma
[7] = test system: TK-10 renal
[8] = test system: XF 498 CNS
[9] = test system: MALME-3M melanoma
[10] = test system: SNB-75 CNS
[11] = test system: UO-31 renal
[12] = test system: NCI-H522 lung
[13] = test system: RXF 393 renal
[14] = test system: HCT-15 colon
[15] = test system: SF-268 CNS
[16] = test system: HT29 colon
[17] = test system: SK-OV-3 ovarian
[18] = test system: SNB-78 CNS
[19] = test system: CAKI-1 renal
[20] = test system: IGROV1 ovarian
[21] = test system: SK-MEL-28 melanoma
[22] = test system: K-562 leukemia
[23] = test system: OVCAR-3 ovarian
[24] = test system: OVCAR-5 ovarian
[25] = test system: UACC-62 melanoma
[26] = test system: KM20L2 colon
[27] = test system: ACHN renal
[28] = test system: HOP-92 NSCLC
[29] = test system: 786-0 renal
[30] = test system: SN12C renal
[31] = test system: NCI-H460 lung
[32] = test system: HL-60(TB) leukemia
[33] = test system: RPMI-8226 leukemia
[34] = test system: SK-MEL-5 melanoma
[35] = test system: SNB-19 CNS
[36] = test system: U251 CNS
[37] = test system: NCI-H226 lung
[38] = test system: KM12 colon
[39] = test system: COLO 205 colon
[40] = test system: SF-295 CNS
[41] = test system: CCRF-CEM leukemia
[42] = test system: EKVX NSCLC
[43] = test system: DLD-1 colon
[44] = test system: LXFL 529 NSCLC
[45] = test system: SW-620 colon
[46] = test system: A549 NSCLC
[47] = test system: SF-539 CNS
[48] = test system: NCI-H23 lung
[49] = test system: SK-MEL-2 melanoma
[50] = test system: HCT-116 colon
[51] = test system: DMS 114 small cell lung
[52] = test system: OVCAR-4 ovarian
[53] = test system: HCC-2998 colon
[54] = test system: MOLT-4 leukemia
[55] = test system: RXF-631 renal
[56] = test system: HOP-18 NSCLC
[57] = test system: UACC-257 melanoma
[58] = test system: A498 renal
[59] = test system: LOX IMVI melanoma
[60] = test system: MDA-N
[61] = test system: DU-145 prostate
[62] = test system: T-47D breast
[63] = test system: MDA-MB-435
[64] = test system: PC-3 prostate
[65] = test system: NCI/ADR-RES ovarian
[66] = test system: MCF7 breast
[67] = test system: BT-549 breast
[68] = test system: HS 578T breast
[69] = test system: MDA-MB-231 breast

Compound: COc1ccc(C(O)C(c2ccc(OCc3ccccc3)cc2)c2ccc(OCc3ccccc3)cc2)cc1 (stereo unspecified)
- TGI [1]: > 100 µM
- TGI [2]: > 100 µM
- TGI [3]: > 100 µM
- TGI [4]: > 100 µM
- TGI [5]: > 100 µM
- TGI [6]: > 100 µM
- TGI [7]: > 100 µM
- TGI [8]: > 100 µM
- TGI [9]: > 100 µM
- TGI [10]: > 100 µM
- TGI [11]: > 100 µM
- TGI [12]: > 100 µM
- TGI [13]: > 100 µM
- TGI [14]: > 100 µM
- TGI [15]: > 100 µM
- TGI [16]: > 100 µM
- TGI [17]: > 100 µM
- TGI [18]: > 100 µM
- TGI [19]: > 100 µM
- TGI [20]: > 100 µM
- TGI [21]: > 100 µM
- TGI [22]: > 100 µM
- TGI [23]: > 100 µM
- TGI [24]: > 100 µM
- TGI [25]: > 100 µM
- TGI [26]: > 100 µM
- TGI [27]: > 100 µM
- TGI [28]: > 100 µM
- TGI [29]: > 100 µM
- TGI [30]: > 100 µM
- TGI [31]: > 100 µM
- TGI [32]: > 100 µM
- TGI [33]: > 100 µM
- TGI [34]: > 100 µM
- TGI [35]: > 100 µM
- TGI [36]: > 100 µM
- TGI [37]: > 100 µM
- TGI [38]: > 100 µM
- TGI [39]: > 100 µM
- TGI [40]: > 100 µM
- TGI [41]: > 100 µM
- TGI [42]: > 100 µM
- TGI [43]: > 100 µM
- TGI [44]: > 100 µM
- TGI [45]: > 100 µM
- TGI [46]: > 100 µM
- TGI [47]: > 100 µM
- TGI [48]: > 100 µM
- TGI [49]: > 100 µM
- TGI [50]: > 100 µM
- TGI [51]: > 100 µM
- TGI [52]: > 100 µM
- TGI [53]: > 100 µM

Compound: CCCN(CCC)C1CC(n2cc(C)c(=O)[nH]c2=O)OC1CO (stereo unspecified)
- TGI [1]: > 100 µM
- TGI [3]: > 100 µM
- TGI [4]: > 100 µM
- TGI [5]: > 100 µM
- TGI [6]: > 100 µM
- TGI [9]: > 100 µM
- TGI [10]: > 100 µM
- TGI [11]: > 100 µM
- TGI [12]: > 100 µM
- TGI [15]: > 100 µM
- TGI [17]: > 100 µM
- TGI [18]: > 100 µM
- TGI [19]: > 100 µM
- TGI [20]: > 100 µM
- TGI [21]: > 100 µM
- TGI [22]: > 100 µM
- TGI [25]: > 100 µM
- TGI [54]: > 100 µM
- TGI [27]: > 100 µM
- TGI [28]: > 100 µM
- TGI [55]: > 100 µM
- TGI [29]: > 100 µM
- TGI [30]: > 100 µM
- TGI [31]: > 100 µM
- TGI [32]: > 100 µM
- TGI [33]: > 100 µM
- TGI [37]: > 100 µM
- TGI [39]: > 100 µM
- TGI [41]: > 100 µM
- TGI [43]: > 100 µM
- TGI [44]: > 100 µM
- TGI [47]: > 100 µM
- TGI [48]: > 100 µM
- TGI [49]: > 100 µM
- TGI [50]: > 100 µM
- TGI [51]: > 100 µM
- TGI [52]: > 100 µM
- TGI [53]: > 100 µM

Compound: CCC(=O)N1C(=S)SC[C@H]1C(=O)OC
- TGI [1]: > 100 µM
- TGI [2]: > 100 µM
- TGI [3]: > 100 µM
- TGI [4]: > 100 µM
- TGI [5]: > 100 µM
- TGI [6]: > 100 µM
- TGI [7]: > 100 µM
- TGI [8]: > 100 µM
- TGI [9]: > 100 µM
- TGI [10]: > 100 µM
- TGI [11]: > 100 µM
- TGI [12]: > 100 µM
- TGI [13]: > 100 µM
- TGI [15]: > 100 µM
- TGI [56]: > 100 µM
- TGI [16]: > 100 µM
- TGI [17]: > 100 µM
- TGI [18]: > 100 µM
- TGI [57]: > 100 µM
- TGI [19]: > 100 µM
- TGI [20]: > 100 µM
- TGI [21]: > 100 µM
- TGI [22]: > 100 µM
- TGI [23]: > 100 µM
- TGI [24]: > 100 µM
- TGI [25]: > 100 µM
- TGI [54]: > 100 µM
- TGI [26]: > 100 µM
- TGI [27]: > 100 µM
- TGI [28]: > 100 µM
- TGI [29]: > 100 µM
- TGI [30]: > 100 µM
- TGI [32]: > 100 µM
- TGI [34]: > 100 µM
- TGI [58]: > 100 µM
- TGI [35]: > 100 µM
- TGI [36]: > 100 µM
- TGI [37]: > 100 µM
- TGI [38]: > 100 µM
- TGI [39]: > 100 µM
- TGI [40]: > 100 µM
- TGI [41]: > 100 µM
- TGI [59]: > 100 µM
- TGI [42]: > 100 µM
- TGI [43]: > 100 µM
- TGI [44]: > 100 µM
- TGI [45]: > 100 µM
- TGI [46]: > 100 µM
- TGI [47]: > 100 µM
- TGI [48]: > 100 µM
- TGI [50]: > 100 µM
- TGI [51]: > 100 µM
- TGI [52]: > 100 µM
- TGI [53]: > 100 µM

Compound: CC(C)OC(=O)Nc1c([N+](=O)[O-])cc(C(F)(F)F)cc1[N+](=O)[O-]
- TGI [1]: > 100 µM
- TGI [2]: > 100 µM
- TGI [3]: > 100 µM
- TGI [4]: > 100 µM
- TGI [60]: > 100 µM
- TGI [5]: > 100 µM
- TGI [61]: > 100 µM
- TGI [7]: > 100 µM
- TGI [8]: > 55.7 µM
- TGI [9]: > 100 µM
- TGI [10]: 40 µM
- TGI [62]: > 100 µM
- TGI [11]: > 100 µM
- TGI [63]: > 100 µM
- TGI [12]: > 100 µM
- TGI [13]: 62.3 µM
- TGI [14]: > 100 µM
- TGI [15]: > 100 µM
- TGI [56]: > 100 µM
- TGI [16]: > 100 µM
- TGI [64]: > 100 µM
- TGI [17]: > 100 µM
- TGI [18]: > 100 µM
- TGI [57]: > 100 µM
- TGI [19]: > 100 µM
- TGI [20]: > 100 µM
- TGI [21]: > 100 µM
- TGI [22]: > 46.4 µM
- TGI [23]: > 100 µM
- TGI [24]: > 100 µM
- TGI [65]: > 100 µM
- TGI [25]: > 100 µM
- TGI [54]: > 46.4 µM
- TGI [66]: > 100 µM
- TGI [26]: > 100 µM
- TGI [27]: > 100 µM
- TGI [67]: > 100 µM
- TGI [28]: > 91.8 µM
- TGI [29]: > 100 µM
- TGI [30]: > 100 µM
- TGI [31]: > 100 µM
- TGI [32]: > 100 µM
- TGI [33]: > 100 µM
- TGI [34]: > 100 µM
- TGI [58]: > 100 µM
- TGI [35]: > 100 µM
- TGI [36]: > 100 µM
- TGI [37]: > 100 µM
- TGI [38]: > 100 µM
- TGI [39]: > 100 µM
- TGI [40]: 98.2 µM
- TGI [68]: > 100 µM
- TGI [41]: > 100 µM
- TGI [59]: > 100 µM
- TGI [42]: > 100 µM
- TGI [43]: > 100 µM
- TGI [44]: > 100 µM
- TGI [45]: > 100 µM
- TGI [69]: > 100 µM
- TGI [46]: > 100 µM
- TGI [47]: 70.3 µM
- TGI [48]: > 100 µM
- TGI [49]: > 100 µM
- TGI [50]: > 100 µM
- TGI [52]: > 100 µM
- TGI [53]: > 100 µM
